Data reported in patent publication US9708336B2, “Metallo-beta-lactamase inhibitors” (priority 2014, dated 2017).
Where two headings read alike, the source gives them in different places.

Columns and labels:
[1] = target: NDM-1 (Klebsiella pneumoniae, UniProt C7C422); assay: biochemical; type: biochemical; details: read-out: NDM-1 IC50
[2] = target: IMP-1 (Serratia marcescens, UniProt P52699); assay: biochemical; type: biochemical; details: read-out: IMP-1 IC50
Protocol: Enzyme Activity: Determination of IC50
The Class B enzyme activities were measured in the presence of the test inhibitor in a fluorescence assay against a commercially available substrate consisting of a cephalosporin core linking 7-hydroxycoumarin to fluorescein (CCF2-FA). The enzyme (NDM-1, IMP-1 or VIM-1) and the substrate were diluted in 100 mM KH2PO4 buffer (pH 7) containing 0.005% Tween-20 and 10 μM ZnSO4. […] The test inhibitor was dissolved in dimethylsulfoxide and diluted 1:50 in the assay, resulting in a final concentration range of 20 uM to 0.00063 uM. In a 384-well microplate, the test inhibitor was incubated with the metallo-β-lactamase enzyme and the substrate for 2 hours at 25° C. Fluorescence at 460 nm following excitation at 405 nm was measured. The IC50 value was determined from semi-logarithmic plots of enzyme inhibition versus inhibitor concentration, with a curve generated using a 4-parameter fit.

[3] = target: VIM-1 (Pseudomonas aeruginosa (strain ATCC 15692 / DSM 22644 / CIP 104116 / JCM 14847 / LMG 12228 / 1C / PRS 101 / PAO1), UniProt A0A0F7KYQ8); assay: Enzyme activity: determination of IC50, fluorescence assay with CCF2-FA substrate (VIM-1); type: biochemical
[4] = test system: Escherichia coli expressing NDM-1 (CLB30016); assay: Antibiotic potentiation activity: synergistic concentration (MITC95) with imipenem, OD600 growth; type: cell-based
Outline: (§1)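 Clinical MBL-producing strains (E. coli NDM-1, S. marcescens IMP-1, K. pneumoniae VIM-1) from overnight plates were diluted 1:100 into 1.1×CAMHB. Compound was tested with imipenem at 4 μg/ml (optionally 1 μg/ml) or without it. After 22–24 h at 35 °C, growth was read as OD600.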

[5] = test system: Klebsiella pneumoniae expressing VIM-1 (IHMA599644); assay: as above; type: cell-based
Outline: as §1

[6] = test system: Serratia marcescens expressing IMP-1 (CL5741); assay: as above; type: cell-based
Outline: as §1

[7] = NDM-1 enzyme, CCF2-FA substrate
[8] = IMP-1 enzyme, CCF2-FA substrate
[9] = VIM-1 IC50, VIM-1 enzyme, CCF2-FA substrate
[10] = (CLB30016, NDM-1), 95% growth inhibition
[11] = Klebsiella pneumoniae IHMA599644 (VIM-1), 95% growth inhibition
[12] = Serratia marcescens CL5741 (IMP-1), 95% growth inhibition
[13] = VIM-1 enzyme, CCF2-FA substrate, read-out: VIM-1 IC50
[14] = fluorescence assay with CCF2-FA substrate
[15] = VIM-1 IC50, fluorescence assay with CCF2-FA substrate
[16] = CLB30016 (NDM-1), 95% inhibition of bacterial growth
[17] = IHMA599644 (VIM-1), 95% inhibition of bacterial growth
[18] = CL5741 (IMP-1), 95% inhibition of bacterial growth
[19] = NDM-1 enzyme, CCF2-FA fluorescence assay
[20] = IMP-1 enzyme, CCF2-FA fluorescence assay
[21] = VIM-1 enzyme, CCF2-FA fluorescence assay, read-out: VIM-1 IC50
[22] = Escherichia coli expressing NDM-1 (CLB30016), 95% growth inhibition
[23] = Klebsiella pneumoniae expressing VIM-1 (IHMA599644), 95% growth inhibition
[24] = Serratia marcescens expressing IMP-1 (CL5741), 95% growth inhibition
[25] = fluorescence assay with CCF2-FA substrate, read-out: VIM-1 IC50

Chain of NDM-1 (C7C422 whole entry, looked up, species assumed): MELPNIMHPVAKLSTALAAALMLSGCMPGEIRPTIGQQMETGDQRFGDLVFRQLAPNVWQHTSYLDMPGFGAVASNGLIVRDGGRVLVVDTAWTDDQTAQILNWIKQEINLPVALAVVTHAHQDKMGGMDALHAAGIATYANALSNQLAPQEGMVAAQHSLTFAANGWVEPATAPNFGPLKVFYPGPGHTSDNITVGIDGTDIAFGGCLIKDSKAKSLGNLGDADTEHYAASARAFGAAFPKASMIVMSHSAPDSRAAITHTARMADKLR
Chain of IMP-1 (P52699 whole entry, looked up): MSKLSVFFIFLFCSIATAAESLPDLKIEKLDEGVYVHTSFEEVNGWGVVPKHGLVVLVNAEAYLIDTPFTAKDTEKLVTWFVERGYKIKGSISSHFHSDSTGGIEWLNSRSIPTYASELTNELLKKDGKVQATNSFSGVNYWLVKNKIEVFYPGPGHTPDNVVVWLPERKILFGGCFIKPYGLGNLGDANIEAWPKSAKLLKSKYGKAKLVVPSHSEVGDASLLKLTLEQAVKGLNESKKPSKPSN

## NC1CCC(N[C@H]2CC[C@H](c3ccc(C(F)(F)F)c(S(N)(=O)=O)c3-c3nnn[nH]3)CC2)CC1 (stereo partly drawn) [Example 701, 3-{4-[(4-aminocyclohexyl)amino]cyclohexyl}-2-(1H-tetrazol-5-yl)-6-(trifluoromethyl)benzene sulfonamide]
[1]; [7]
  IC50: 15.4 nM
[2]; [8]
  IC50: 62.9 nM
[3]; [9]
  IC50: 12.7 nM
[4]; [10]
  Escherichia coli MITC95: 0.7813 µM
[5]; [11]
  Klebsiella pneumoniae MITC95: 6.25 µM
[6]; [12]
  Serratia marcescens MITC95: 3.125 µM

## Nc1nc2c(-c3ccc(CCCO)c(S(N)(=O)=O)c3-c3nn[nH]n3)cccc2s1 [Example 533, 3-(2-Aminobenzo[d]thiazol-4-yl)-6-(3-hydroxypropyl)-2-(2H-tetrazol-5-yl)benzenesulfonamide]
[1]; [7]
  IC50: 0.878 nM
[2]; [8]
  IC50: 16.6 nM
[3]; [13]
  IC50: 2.88 nM
[4]; [10]
  Escherichia coli MITC95: 3.125 µM
[5]; [11]
  Klebsiella pneumoniae MITC95: 12.5 µM
[6]; [12]
  Serratia marcescens MITC95: 12.5 µM

## NS(=O)(=O)c1c(C(F)(F)F)ccc(N2CCC(C3CCNCC3)C2)c1-c1nnn[nH]1 (stereo not drawn) [Example 774, 3-(3-piperidin-4-ylpyrrolidin-1-yl)-2-(1H-tetrazol-5-yl)-6-(trifluoromethyl) benzenesulfonamide]
[1]; [14]
  IC50: 62.6 nM
[2]; [14]
  IC50: 29.1 nM
[3]; [15]
  IC50: 1.35 nM
[4]; [16]
  Escherichia coli MITC95: 25 µM
[5]; [17]
  Klebsiella pneumoniae MITC95: 6.25 µM
[6]; [18]
  Serratia marcescens MITC95: 25 µM

## NS(=O)(=O)c1c(CCCCCO)ccc(CCCCCO)c1-c1nn[nH]n1 [Example 542, 3,6-Bis(5-hydroxypentyl)-2-(2H-tetrazol-5-yl)benzenesulfonamide]
[1]; [7]
  IC50: 11.5 nM
[2]; [8]
  IC50: 7.9 nM
[3]; [13]
  IC50: 6.43 nM
[4]; [10]
  Escherichia coli MITC95: 25 µM
[5]; [11]
  Klebsiella pneumoniae MITC95: 100 µM
[6]; [12]
  Serratia marcescens MITC95: 6.25 µM

## NCC1CCN(c2ccc(C(F)(F)F)c(S(N)(=O)=O)c2-c2nnn[nH]2)CC1 [Example 821, 3-[4-(aminomethyl)-1-piperidyl]-2-(1H-tetrazol-5-yl)-6-(trifluoromethyl)benzenesulfonamide]
[1]; [14]
  IC50: 18.1 nM
[2]; [14]
  IC50: 55.1 nM
[3]; [15]
  IC50: 0.496 nM
[4]; [16]
  Escherichia coli MITC95: 12.5 µM
[5]; [17]
  Klebsiella pneumoniae MITC95: 12.5 µM
[6]; [18]
  Serratia marcescens MITC95: 6.25 µM

## NC[C@H]1CC[C@@H](Cc2ccc(-c3ccc(C4CCNC4)cc3)c(-c3nnn[nH]3)c2S(N)(=O)=O)CC1 (stereo partly drawn) [Example 587, 4-(((1s,4s)-4-(aminomethyl)cyclohexyl)methyl)-4′-(pyrrolidin-3-yl)-2-(1H-tetrazol-5-yl)-[1,1′-biphenyl]-3-sulfonamide]
[1]; [7]
  IC50: 0.798 nM
[2]; [8]
  IC50: 2.83 nM
[3]; [13]
  IC50: 11.5 nM
[4]; [10]
  Escherichia coli MITC95: 0.7813 µM
[5]; [11]
  Klebsiella pneumoniae MITC95: 6.25 µM
[6]; [12]
  Serratia marcescens MITC95: 1.563 µM

## CN(C)C1CCC(NCc2ccc(-c3cccc(S(N)(=O)=O)c3-c3nnn[nH]3)cc2)CC1 (stereo not drawn) [Example 355, 4′-({[4-(dimethylamino)cyclohexyl]amino}methyl)-2-(1H-tetrazol-5-yl)biphenyl-3-sulfonamide]
[1]; [19]
  IC50: 14 nM
[2]; [20]
  IC50: 467 nM
[3]; [21]
  IC50: 869 nM
[4]; [22]
  Escherichia coli MITC95: 1.563 µM
[5]; [23]
  Klebsiella pneumoniae MITC95: 150 µM
[6]; [24]
  Serratia marcescens MITC95: 4.688 µM

## NS(=O)(=O)c1c(C(F)(F)F)ccc(NC2(C3CCNC3)CC2)c1-c1nnn[nH]1 (stereo not drawn) [Example 777, 3-[(1-pyrrolidin-3-ylcyclopropyl)amino]-2-(1H-tetrazol-5-yl)-6-(trifluoromethyl) benzenesulfonamide]
[1]; [14]
  IC50: 23.3 nM
[2]; [14]
  IC50: 51.3 nM
[3]; [25]
  IC50: 6.73 nM
[4]; [16]
  Escherichia coli MITC95: 12.5 µM
[5]; [17]
  Klebsiella pneumoniae MITC95: 6.25 µM
[6]; [18]
  Serratia marcescens MITC95: 12.5 µM

## Nc1nccc2ccc(-c3cccc(S(N)(=O)=O)c3-c3nnn[nH]3)cc12 [Example 400, 3-(1-aminoisoquinolin-7-yl)-2-(1H-tetrazol-5-yl)benzenesulfonamide]
[1]; [19]
  IC50: 1.64 nM
[2]; [20]
  IC50: 166 nM
[3]; VIM-1 IC50, VIM-1 enzyme, CCF2-FA fluorescence assay
  IC50: 18.4 nM
[4]; [22]
  Escherichia coli MITC95: 0.25 µM
[5]; [23]
  Klebsiella pneumoniae MITC95: 6.25 µM
[6]; [24]
  Serratia marcescens MITC95: 12.5 µM

## CNC1CC(N2CC(c3ccc(-c4ccc(C(F)(F)F)c(S(N)(=O)=O)c4-c4nnn[nH]4)cc3)C2)C1 (stereo not drawn) [Example 815, 4′-{1-[3-(methylamino)cyclobutyl]azetidin-3-yl}-2-(1H-tetrazol-5-yl)-4-(trifluoromethyl)biphenyl-3-sulfonamide]
[1]; [14]
  IC50: 4.84 nM
[2]; [14]
  IC50: 6.01 nM
[3]; [25]
  IC50: 18 nM
[4]; [16]
  Escherichia coli MITC95: 1.563 µM
[5]; [17]
  Klebsiella pneumoniae MITC95: 100 µM
[6]; [18]
  Serratia marcescens MITC95: 3.125 µM

## CNC1CCc2c(-c3ccc(C(F)(F)F)c(S(N)(=O)=O)c3-c3nnn[nH]3)cccc21 (stereo not drawn) [Example 726, 3-[1-(methylamino)-2,3-dihydro-1H-inden-4-yl]-2-(1H-tetrazol-5-yl)-6-(trifluoromethyl)benzenesulfon-amide]
[1]; [7]
  IC50: 26.8 nM
[2]; [8]
  IC50: 58.9 nM
[3]; [13]
  IC50: 1.21 nM
[4]; [10]
  Escherichia coli MITC95: 12.5 µM
[5]; [11]
  Klebsiella pneumoniae MITC95: 3.125 µM
[6]; [12]
  Serratia marcescens MITC95: 25 µM

## NCCCCCNc1nc2c(-c3cccc(S(N)(=O)=O)c3-c3nnn[nH]3)cccc2s1 [Example 644, 3-[2-(5-aminopentylamino)-1,3-benzothiazol-4-yl]-2-(1H-tetrazol-5-yl)benzenesulfonamide]
[1]; [7]
  IC50: 1.34 nM
[2]; [8]
  IC50: 32.4 nM
[3]; [9]
  IC50: 13.8 nM
[4]; [10]
  Escherichia coli MITC95: 4.688 µM
[5]; [11]
  Klebsiella pneumoniae MITC95: 75 µM
[6]; [12]
  Serratia marcescens MITC95: 37.5 µM

## NS(=O)(=O)c1c(C(F)(F)F)ccc(N2CCN(CCCO)CC2)c1-c1nnn[nH]1 [Example 763, 3-[4-(3-hydroxypropyl)piperazin-1-yl]-2-(1H-tetrazol-5-yl)-6-(trifluoromethyl) benzenesulfonamide]
[1]; [14]
  IC50: 37.7 nM
[2]; [14]
  IC50: 46.4 nM
[3]; [25]
  IC50: 73.6 nM
[4]; [16]
  Escherichia coli MITC95: 1.563 µM
[5]; [17]
  Klebsiella pneumoniae MITC95: 50 µM
[6]; [18]
  Serratia marcescens MITC95: 3.125 µM

## NC(=O)c1ccc(-c2ccc(C(F)(F)F)c(S(N)(=O)=O)c2-c2nn[nH]n2)cn1 [Example 527, 5-(3-Sulfamoyl-2-(2H-tetrazol-5-yl)-4-(trifluoromethyl)phenyl)picolinamide]
[1]; [7]
  IC50: 7.03 nM
[2]; [8]
  IC50: 10.6 nM
[3]; [13]
  IC50: 2.89 nM
[4]; [10]
  Escherichia coli MITC95: 6.25 µM
[5]; [11]
  Klebsiella pneumoniae MITC95: 12.5 µM
[6]; [12]
  Serratia marcescens MITC95: 12.5 µM

## NS(=O)(=O)c1c(CC[C@H]2CC[C@H](N)CC2)ccc(-c2ccc(C3CCNC3)cc2)c1-c1nnn[nH]1 (stereo partly drawn) [Example 584, 4-(2-((1r,4s)-4-aminocyclohexyl)ethyl)-4′-(pyrrolidin-3-yl)-2-(1H-tetrazol-5-yl)-[1,1′-biphenyl]-3-sulfonamide]
[1]; [7]
  IC50: 2.05 nM
[2]; [8]
  IC50: 10.2 nM
[3]; [13]
  IC50: 1.61 nM
[4]; [10]
  Escherichia coli MITC95: 1.563 µM
[5]; [11]
  Klebsiella pneumoniae MITC95: 6.25 µM
[6]; [12]
  Serratia marcescens MITC95: 1.563 µM

## NS(=O)(=O)c1c(C(F)(F)F)ccc(-c2ccc(C3CCN(CCC4CCNCC4)CC3)cc2)c1-c1nnn[nH]1 [Example 793, 4′-[1-(2-piperidin-4-ylethyl)piperidin-4-yl]-2-(1H-tetrazol-5-yl)-4-(trifluoromethyl)biphenyl-3-sulfonamide]
[1]; [14]
  IC50: 7 nM
[2]; [14]
  IC50: 1.02 nM
[3]; [25]
  IC50: 4.66 nM
[4]; [16]
  Escherichia coli MITC95: 1.563 µM
[5]; [17]
  Klebsiella pneumoniae MITC95: 25 µM
[6]; [18]
  Serratia marcescens MITC95: 3.125 µM

## NS(=O)(=O)c1cccc(-c2cc3ccncc3s2)c1-c1nnn[nH]1 [Example 410, 2-(1H-tetrazol-5-yl)-3-thieno[2,3-c]pyridin-2-yl-benzenesulfonamide]
[1]; [19]
  IC50: 4.11 nM
[2]; [20]
  IC50: 107 nM
[3]; [21]
  IC50: 19.2 nM
[4]; [22]
  Escherichia coli MITC95: 0.5859 µM
[5]; [23]
  Klebsiella pneumoniae MITC95: 18.75 µM
[6]; [24]
  Serratia marcescens MITC95: 3.125 µM

## NS(=O)(=O)c1c(C(F)(F)F)ccc(N2C[C@H](O)C[C@@H](O)C2)c1-c1nnn[nH]1 [Example 666, 3-[(3R,5R)-3,5-dihydroxypiperidin-1-yl]-2-(1H-tetrazol-5-yl)-6-(trifluoromethyl)benzenesulfonamide]
[1]; [7]
  IC50: 57 nM
[2]; [8]
  IC50: 150 nM
[3]; [13]
  IC50: 14.7 nM
[4]; [10]
  Escherichia coli MITC95: 2.344 µM
[5]; [11]
  Klebsiella pneumoniae MITC95: 12.5 µM
[6]; [12]
  Serratia marcescens MITC95: 4.688 µM
